From US12059429B2, “Hornerin: a novel non-VEGF mediated angiogenic protein expressed in both human and mouse angiogenic endothelial cells and human pancreatic cancer cells” (University of Virginia Patent Foundation, priority 2018, dated 2024)

Tests used:
[1] = test system: hornerin; experiment: Immunofluorescent microscopy of hornerin protein in tumor sections; assay type: in vivo, mouse; conditions: vs Scr siRNA
Experimental: Tumor sections were deparaffinized, rehydrated, heated in antigen retrieval solution (Vector), blocked for 30 minutes in blocking buffer, and incubated with anti-CD34 antibody (Abcam, ab8158, clone MEC14.7; 1:100) in blocking buffer overnight at 4° C. The sections were then incubated with goat anti-rat FITC secondary antibody (Abcam, ab6840; 1:100) in blocking buffer prior to mounting with Prolong Gold Antifade reagent (Invitrogen). Anti-actin, α-smooth muscle Cy3 antibody (Sigma, C6198, clone 1A4; 1:200) was added to the primary antibody solution if assaying for alpha-smooth muscle actin. […] Images were collected using a Nikon TE 2000-E2 microscope (Nikon Instruments) equipped with a Melles Griot Argon Laser System (Melles Griot, Carlsbad, CA, USA) and a Nikon D-Eclipse C1 confocal attachment and analyzed by Measurement Tool in Image J. To measure the relative hornerin expression in tumor vessels, three vessel segments per image were isolated and their mean intensity and area were measured and recorded. A weighted mean intensity was calculated to correct for differences in selected area. To measure the relative hornerin expression in tumor tissue, the mean intensity from three square sections (75×75 pixel) of tumor tissue per image was measured and recorded.

[2] = test system: human hornerin; experiment: In vitro siRNA treatment of human keratinocytes (immunoblot); assay type: cell-based
Experimental: For in vitro siRNA-mediated hornerin knockdown, COCA cells and human keratinocytes were plated at a density of 0.1×10^6 cells/well in a six-well cluster plate. The cells were treated the following day with Scr siRNA or Hrnr siRNA (Invitrogen; siRNA sequences identical to those utilized in tumor studies) following an established protocol (see Rachow et al., 2013). Briefly, 100 μL of 10 μM siRNA and 12.5 μL of Lipofectamine 2000 (LF2000; Invitrogen) were added to separate 625 μL OptiMEM (Thermo Fisher Scientific) aliquots. After 5 minutes at RT, the solutions were mixed and incubated for an additional 30 minutes, upon which 5 ml of keratinocyte media were added. The cells were incubated overnight in 3 ml of the siRNA/LF2000/media mixture, replenished the following morning with media containing 2 mM CaCl2) to induce differentiation, and lysed in RIPA buffer 8 hours post-media change. Lysate preparations were subjected to immunoblot using the primary antibodies anti-human hornerin (Abcam; 1:1000), anti-mouse hornerin (Santa Cruz Biotechnology, Dallas, TX, USA, sc164605; 1:200), or anti-beta actin (Cell Signaling; 1:4000), and respective secondary antibodies anti-goat HRP (R&D Systems; 1:10,000), and anti-mouse HRP (R&D Systems; 1:10,000). Uncropped hornerin immunoblots are represented in FIGS. 6A and 6B.

[3] = test system: tumor vasculature; experiment: Photoacoustic microscopy of tumor vasculature; assay type: in vivo, mouse; conditions: day 12
Description: Using an established PAM system (Wang & Hu, 2012; Ning et al., 2015a; Ning et al., 2015b), the tumor vasculature was characterized in vivo. Two laser wavelengths, 532 and 559 nm, were used to simultaneously quantify microvascular diameter, oxygen saturation, and blood flow at the same spatial scale (Ning et al., 2015a). The applied optical energies were 100 and 75 nJ, which are below the maximum permissible exposure energy. Throughout the experiment, mice were maintained under anesthesia with 1.5% vaporized isoflurane and the body temperature was kept at 37° C. All experimental procedures were carried out in conformity with the laboratory animal protocol approved by the Animal Care and Use Committee at the University of Virginia.

Q: Which results are given for “5′-GCAUGGAUCUUGUUGCGGUTT-3′ [Hrnr siRNA]”?
A: decrease in hornerin expression in endothelial cells ([1]; CD34+ tumor vessels): 30%; hornerin expression in epithelial cells from tumors [1]: no difference; loss of hornerin relative to Scr siRNA ([2]; similar conditions): ~10%; hornerin expression level relative to Scr siRNA ([2]; similar siRNA conditions): ~90%; tumor blood hemoglobin levels [3]: remained unchanged; tumor blood oxygen saturation compared to control [3]: 1.7 fold
